# Biological target: T1, full-length human S1P1 (Homo sapiens, UniProt P21453)
# T1 construct: CHO-K1 Gαqi5 cells expression full-length human S1P1; expressed in transfected cells; host or cells: CHO-K1 Gαqi5 cells (membrane preparation)
# Assay: GTPγS binding assay (scintillation proximity assay) on S1P1 membranes
# Assay type: biochemical
# Conditions: membranes from CHO-K1 Gαqi5 cells expressing full-length human S1P1; GTPγ35S; 60 minutes incubation
# Protocol: S1P1 membrane is prepared from CHO-K1 Gαqi5 cells expression full-length human S1P1. Scintillation proximity assay (SPA) is performed by incubating membranes, GTPγ^35S, and compound 11 at various concentrations for 60 minutes. Wheat germ agglutinin-coated SPA beads are added and incubated for 60 minutes before centrifugation and scintillation counting.
# T1 sequence (P21453 whole entry): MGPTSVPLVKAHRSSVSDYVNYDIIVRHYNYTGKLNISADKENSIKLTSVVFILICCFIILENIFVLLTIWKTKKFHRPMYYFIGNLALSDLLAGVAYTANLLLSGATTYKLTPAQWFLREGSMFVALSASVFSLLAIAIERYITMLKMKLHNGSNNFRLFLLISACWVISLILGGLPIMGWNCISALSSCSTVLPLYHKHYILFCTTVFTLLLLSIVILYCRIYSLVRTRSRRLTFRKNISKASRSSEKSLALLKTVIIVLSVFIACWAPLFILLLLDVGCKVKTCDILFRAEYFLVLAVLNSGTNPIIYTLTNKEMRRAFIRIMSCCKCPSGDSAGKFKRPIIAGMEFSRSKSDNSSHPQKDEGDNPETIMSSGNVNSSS
compound,measurement,value
"O=C1CC[C@@H](Oc2cc(Cl)c(-c3noc(-c4cn5cc(C(F)(F)F)cc(Cl)c5n4)n3)cc2Cl)CN1 [compound 11, (R)-5-(2,5-diehloro-4-(5-(8-chloro-6-(trifluoromethyl)imidazo[1,2-a]pyridin-2-yl)-1,2,4-oxadiazol-3-yl)phenoxy)piperidin-2-one]",EC50,< 1000 nM
